# Structures can show the parent of a compound that is named as a salt. Where two headings read alike, the source gives them in different places.
# Key:
# [1] = in vitro; assay type: cell-based, human; conditions: human, dermal fibroblasts, MTT
# Experimental: (§1) As discussed above, the chemical modifier, when present in the subject in its free or released form, and in appropriately administered amounts, should preferably be non-toxic. Additionally, any further in vivo degradation products of the chemical modifier should be non-toxic, as well. Table 2 provides in vitro relative cytotoxicity data for a number of testosterone/chemical modifier complexes, prepared in accordance with the invention. The cytotoxicity assessment was carried out by examining the viability of human dermal fibroblasts in the presence of a number of testosterone/chemical modifier complexes in accordance with the present invention. Details of the experimental protocol are summarized in Example 27.
# (§2) The viability of human dermal fibroblasts in the presence of the 17-hydroxy sterol/chemical modifier compounds was assayed using MTT (3-[4,5-dimethylthiazol-2-yl]-2,5-diphenyltetrazolium bromide) reduction to formazan by mitochondrial enzymes as an indicator of cytotoxicity (Swisher, et al.). Confluent fibroblast cells were incubated for 2 or 16 hours in the presence of increasing concentrations of drug complex. At the end of the incubation period, medium was replaced for 4 hours by medium containing the tetrazolium salt, MTT. Metabolism of MTT to a blue formazan was quantitated by spectrophotometry at 540 nm.
# [2] = Water solubility (H2O sol)
# [3] = assay type: in vitro ADME, mouse; conditions: for Flux, active electrotransport (ET): murine skin, active cells (ETm), 10 mM donor, 100 uA/cm^2, 6 h, 32° C.
# Experimental: In vitro electrotransport of testosterone/chemical modifier complexes across hairless mouse skin was evaluated as described in Example 28. The experiments were conducted using modified Valia-Chien cells having 1.0 ml donor and 2.5 ml receptor cells. Anodic transport was carried out using a silver wire-based salt bridge in the donor compartment and a silver chloride cathode in the receptor. Cathodic transport was effected by reversing the electrode configuration. The cells were connected in series and a constant current and temperature were supplied to each cell.
# After a predetermined period of time (6 h), aliquots were removed from the receiver phase for immediate analysis by HPLC to determine cumulative flux.
# The electrotransport of testosterone/chemical modifier complexes was achieved using modified Valia-Chien cells (1.0 ml donor and 2.5 ml receptor cells). Full thickness, hairless mouse skin (Charles River Labs, Wilmington, Mass.) was soaked for one hour in phosphate buffered saline (PBS, pH=7.4) before placing between each compartment (dermal side of skin facing toward receptor). One passive (P1:data) and two or more (ETm :data) active cells were used to screen each compound.
# A 10 mM (1 ml) aqueous solution of testosterone drug/prodrug was placed in the donor (unstirred) compartment and the receptor (stirred) was filled with 2.5 ml of PBS. In order to check for egress due to e.g. damaged skin, a zero hour sample of receptor ([…]) was taken one half hour after the drug solution was placed in the donor compartment. Replacement fluid of equal sample volume was added to the receptor compartment immediately after samples were taken.
# Anodic electrotransport was achieved using a silver wire (immersed in a polyvinylalcohol-based salt bridge to minimize junction potential) in the donor compartment and a AgCl cathode in the receptor. […] The electrotransport cells were connected in series and constant current (100 uA/cm^2, […] for a skin area of 0.64 cm^2) and temperature (32° C.) were supplied to each cell. After six hours of active/passive transport, aliquots (200 ul) of the receptor were sampled and immediately analyzed by HPLC.
# A standard plot of peak area and concentration for each compound was constructed using HPLC. The peak areas of the samples were determined and the concentrations calculated using the standard data. Cumulative flux was calculated using Quickbasic and reported in nmol/cm^2 /hr.
# [4] = in vitro; assay type: in vitro ADME; conditions: human, serum, 37° C.
# Experimental: The hydrolytic activity of the sterol prodrug may be evaluated by studies of the chemical or enzymatic conversion of the prodrug to the unmodified parent compound, as described in Example 26.
# Generally, the sterol/chemical modifier complex is dissolved in a minimum amount of a suitable solvent, such as ethanol, and the resulting solution is added to a sample of human serum. Following incubation, aliquots are then removed at various time points and analyzed to determine the extent of hydrolysis. Table I herein lists the representative serum half-lives of a number of testosterone prodrugs according to the present invention.
# The rates of conversion are readily determined, for example by spectrophotometric methods or by gas-liquid or high performance liquid chromatography. Half-lives and other kinetic parameters may then be calculated using standard techniques.
# Determination of Testosterone Prodrug Hydrolysis in Serum
# Stock solutions (6 mM) of the testosterone prodrugs were prepared in ethanol (dissolution was accomplished by vortexing, sonication, or warming at 37° C., as needed). If required for dissolution, one drop of a co-solvent such as dimethylsulfoxide, dimethylformamide or methanol was added. (Acetonitrile is undesirable because it deactivates the serum enzymes).
# HPLC separation methods were established for each study by dilution of the above stock solutions (6 μl) in acetonitrile (1 ml) to form 36 μM solutions. Samples (10 μl) were injected onto a Nucleosil 5C8 column (250×4 mm ID) fitted with an additional guard column (11×4 mm ID) and eluted with a mobile phase of approximately 65% HPLC grade water and 35% trifluoroacetic acid in acetonitrile (0.1% TFA in acetonitrile). Exact proportions of the mobile phase eluents were adjusted in each case to give optimum separation and run times.
# Freshly defrosted human serum (3 ml, Sigma) was warmed at 37° C. for five minutes and then the testosterone prodrug stock solution (60 μl) was added with vortexing. […] The aliquots were added to 800 μl of 2% zinc sulfate solution in a 1.5 ml disposable microcentrifuge tube, vortexed immediately and centrifuged at 14,000 RPM for 3 minutes. The supernatants (10 μl) were injected onto the HPLC and peak areas used to determine the percent of parent drug formed or percent of prodrug remaining. Serum blanks were prepared similarly by addition of serum to the zinc sulfate solution, followed by centrifugation. Initial (time=0) samples were prepared by adding serum to the zinc sulfate solution, followed by addition of the complex and separation by centrifugation. The time=0 samples, as well as the original stock solutions, were also used to assess the stability of the complex in the absence of enzyme. Half-lives were determined using the following equation : […]
# and plotting time (x ordinate) versus the natural logarithm of percent remaining prodrug (y ordinate) to obtain the slope (m) and the y intercept (b).
# [5] = Steady state flux across human skin (iontophoretic); assay type: in vitro ADME; conditions: iontophoresis (Table 4)
# Experimental: Another useful factor for in vitro assessment of skin permeability of a target drug or drug complex is steady state flux. Typically, when performing a kinetic analysis of the skin-penetrating ability of a target compound through a membrane, such as skin, such an analysis includes an assessment of the lag time and the steady state flux or permeation rate. The ideal membrane for such determinations is human skin.
# Steady state flux across human skin was determined for three distinct testosterone/chemical modifier complexes, as shown in FIG. 5 and in Table 4. In FIG. 5, iontophoretic flux rates over time are plotted for testosterone-17β-stachydrine ester, chloride salt [2.9], (closed circles), testosterone-17β-(L-carnitine ethyl ester) carbonate, iodide salt [1.7] (solid squares), and testosterone-17β-choline carbonate, bromide salt [1.4] (open circles). […] Steady state flux values in FIG. 5 are expressed as testosterone equivalents in units of μg/cm^2 h.
# Iontophoretically-induced steady state flux across human skin was determined for three distinct testosterone/chemical modifier complexes, testosterone-17β-stachydrine ester, chloride salt [2.9], testosterone-17β-(L-carnitine ethyl ester) carbonate, iodide salt [1.7], and testosterone-17β-choline carbonate, bromide salt [1.4]. The in vitro skin flux experiments were carried out in a similar fashion to those described above, with the exception that human skin was used as the membrane.
# Steady state flux values provide an indication of the total amount of drug (or drug complex) that can penetrate the skin, under a given set of experimental conditions.
# [6] = Degradation (%/d)
# [7] = tested on: human dermal fibroblasts; experiment: in vitro; assay type: cell-based; conditions: MTT
# Experimental: as §1, §2
SMILES,"CC50 at 2 h ([1]; IC50 2 h (cytotoxicity), 2 h incubation)","CC50 at 16 h ([1]; IC50 16 h (cytotoxicity), 16 h incubation)",H2O sol [2],"Flux, active electrotransport (ET) [3]",half-life ([4]; sample of 82% purity),Steady State Flux [5],Degradation [6],"CC50 ([7]; read-out: IC50 2 h (cytotoxicity), 2 h incubation, 120 min)","CC50 ([7]; read-out: IC50 16 h (cytotoxicity), 16 h incubation, 960 min)","Enhancement in in vitro electrotransport skin flux compared to testosterone ([3]; hairless mouse skin, vs unmodified testosterone, 'nearly 10-fold enhancement or greater')",half-life ([4]; HPLC)
"CCOC(=O)C[C@H](C[N+](C)(C)C)OC(=O)O[C@H]1CC[C@H]2[C@@H]3CCC4=CC(=O)CC[C@]4(C)[C@H]3CC[C@]12C [Code 1.7, testosterone-17β-(L-carnitine ethyl ester) carbonate, iodide salt]",913 µM,849 µM,5.3 mg/mL,3.6 ± 1.3 nmol/cm^2 /hr,4.2 h,75 ± 14 nmole/cm^2 /h,0 %/d,,,,
"CCOC(=O)C[C@H](C[N+](C)(C)C)OC(=O)O[C@H]1CC[C@H]2[C@@H]3CCC4=CC(=O)CC[C@]4(C)[C@H]3CC[C@]12C [Code 4.1, testosterone-17β-(L-carnitine ethyl ester) carbonate, bromide salt]",,,21.0 mg/mL,15.7 ± 5.3 nmol/cm^2 /hr,,,1 %/d,1400 µM,560 µM,≥ 10 fold,4 h
